target: T1, recombinant human 15-PGDH (Homo sapiens, UniProt P15428); assay: 15-PGDH enzyme inhibition test; format: biochemical; details: 4 nM recombinant human 15-PGDH, 30 μM PGE2, 1 mM NAD+, 60 minutes after starting the reaction; read-out: IC50 Value
T1 construct: purchased R&D Systems
T1 sequence (P15428 1-266): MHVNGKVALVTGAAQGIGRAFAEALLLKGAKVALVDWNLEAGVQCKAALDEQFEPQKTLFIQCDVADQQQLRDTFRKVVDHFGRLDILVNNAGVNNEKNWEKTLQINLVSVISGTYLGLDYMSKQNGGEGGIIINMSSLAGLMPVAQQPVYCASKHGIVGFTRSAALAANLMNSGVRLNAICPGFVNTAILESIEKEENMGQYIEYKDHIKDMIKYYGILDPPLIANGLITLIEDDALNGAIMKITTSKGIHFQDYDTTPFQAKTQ
Method in brief: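 4 nM recombinant human enzyme pre-incubated with compound 12 min at room temperature in 50 mM Tris-HCl pH 8.0 with 0.01% Tween 20 and 0.01% bovine gamma globulin. Reaction started with 30 μM PGE2 and 1 mM NAD+, read after 60 min by fluorescence (ex 340/em 440 nm). IC50 from concentration-response curve.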

SMILES	IC50 [µM]
CCN1Cc2cc(N3CCCc4cc(C(=O)N5CCN(C(C)=O)CC5)cnc43)ccc2C1=O [Example 8-74]	> 0.1
CCN1Cc2cc(N3CCCc4cc(C(=O)N5CC=CCC5)cnc43)ccc2C1=O [Example 8-75]	< 0.01
CCN1Cc2cc(N3CCCc4cc(C(=O)N5CCc6ccccc6C5)cnc43)ccc2C1=O [Example 8-76]	< 0.01
CCN1Cc2cc(N3CCCc4cc(C(=O)N5Cc6ccccc6C5)cnc43)ccc2C1=O [Example 8-77]	< 0.01
CCN1Cc2cc(N3CCCc4cc(C(=O)N5CCCC[C@H]5C)cnc43)ccc2C1=O [Example 8-78]	< 0.01
CCN1Cc2cc(N3CCCc4cc(C(=O)N5CCCC[C@@H]5C)cnc43)ccc2C1=O [Example 8-79]	< 0.01
CCN1Cc2cc(N3CCCc4cc(C(=O)N5CCC(C)CC5)cnc43)ccc2C1=O [Example 8-80]	< 0.01
CCN1Cc2cc(N3CCCc4cc(C(=O)N5CCCC(C)(F)C5)cnc43)ccc2C1=O (stereo not shown) [Example 8-81]	< 0.01
CCN1Cc2cc(N3CCCc4cc(C(=O)N5CCC(F)(F)C(C)C5)cnc43)ccc2C1=O (stereo not shown) [Example 8-82]	< 0.01
CCN1Cc2cc(N3CCCc4cc(C(=O)N5CCC[C@@H](F)C5)cnc43)ccc2C1=O [Example 8-83]	< 0.01
CCN1Cc2cc(N3CCCc4cc(C(=O)N5CCC[C@H](F)C5)cnc43)ccc2C1=O [Example 8-84]	< 0.01
CCN1Cc2cc(N3CCCc4cc(C(=O)N5CCCC(F)(F)C5)cnc43)ccc2C1=O [Example 8-85]	< 0.01
CCN1Cc2cc(N3CCCc4cc(C(=O)N5CCC(F)CC5)cnc43)ccc2C1=O [Example 8-86]	< 0.01
CCN1Cc2cc(N3CCCc4cc(C(=O)N5CCC[C@@H](C(F)(F)F)C5)cnc43)ccc2C1=O [Example 8-87]	< 0.01
CCN1Cc2cc(N3CCCc4cc(C(=O)N5CCC[C@H](C(F)(F)F)C5)cnc43)ccc2C1=O [Example 8-88]	< 0.01

Results, then the molecule that gave them:

IC50 [µM]	SMILES
< 0.01	CCN1Cc2cc(N3CCCc4cc(C(=O)N5CCC[C@@H](C)C5)cnc43)ccc2C1=O [Example 8-89]
< 0.01	CCN1Cc2cc(N3CCCc4cc(C(=O)N5CCC[C@H](C)C5)cnc43)ccc2C1=O [Example 8-90]
< 0.01	CCN1Cc2cc(N3CCCc4cc(C(=O)N5CCC[C@@H](CF)C5)cnc43)ccc2C1=O [Example 8-91]
< 0.01	CCN1Cc2cc(N3CCCc4cc(C(=O)N5CCC[C@H](CF)C5)cnc43)ccc2C1=O [Example 8-92]
< 0.01	CCN1Cc2cc(N3CCCc4cc(C(=O)N5CCC[C@@H](C(F)F)C5)cnc43)ccc2C1=O [Example 8-93]
< 0.01	CCN1Cc2cc(N3CCCc4cc(C(=O)N5CCC[C@H](C(F)F)C5)cnc43)ccc2C1=O [Example 8-94]
0.01 to 0.1	Cn1nc2cc(N3CCOc4cc(C(=O)N5CCCC6(C5)CC(F)(F)C6)cnc43)ccn2c1=O [Example 8-95]
< 0.01	O=C(c1cnc2c(c1)CCCN2c1ccc2c(=O)[nH]cnc2c1)N1CCC(F)(F)CC1 [Example 8-96]
< 0.01	Cn1nc2cc(N3CCOc4cc(C(=O)N5CC6CCC6C5)cnc43)ccn2c1=O (stereo not shown) [Example 8-97]
< 0.01	Cn1nc2cc(N3CCOc4cc(C(=O)N5C[C@H]6CCC[C@H]6C5)cnc43)ccn2c1=O [Example 8-98]
< 0.01	Cn1nc2cc(N3CCOc4cc(C(=O)N5CC6CC6C5)cnc43)ccn2c1=O (stereo not shown) [Example 8-99]
< 0.01	Cn1nc2cc(N3CCOc4cc(C(=O)N5CCC(C)(C)C5)cnc43)ccn2c1=O [Example 8-100]
< 0.01	Cn1nc2cc(N3CCOc4cc(C(=O)N5CCC(C(F)(F)F)CC5)cnc43)ccn2c1=O [Example 8-101]
< 0.01	Cn1nc2cc(N3CCOc4cc(C(=O)N5CCCCCC5)cnc43)ccn2c1=O [Example 8-102]
< 0.01	Cn1nc2cc(N3CCOc4cc(C(=O)N5Cc6ccccc6C5)cnc43)ccn2c1=O [Example 8-103]
0.01 to 0.1	Cn1nc2cc(N3CCOc4cc(C(=O)N5CCc6ccccc65)cnc43)ccn2c1=O [Example 8-104]

Reference: patent publication US12577217B2, “15-PGDH inhibitor” (KYORIN Pharmaceutical Co., Ltd., priority 2019, dated 2026)
